The values below come from US7169966B2, “Salicylic acid-binding protein encoding nucleic acid, SABP2, and methods of use thereof” (Boyce Thompson Institute for Plant Research, Inc., priority 2001, dated 2007).

Experiment [1] addresses T1, AtSB2L1 (Arabidopsis thaliana, UniProt Q8S8S9).
T1 construct: made in house
T1 sequence (Q8S8S9 1-263): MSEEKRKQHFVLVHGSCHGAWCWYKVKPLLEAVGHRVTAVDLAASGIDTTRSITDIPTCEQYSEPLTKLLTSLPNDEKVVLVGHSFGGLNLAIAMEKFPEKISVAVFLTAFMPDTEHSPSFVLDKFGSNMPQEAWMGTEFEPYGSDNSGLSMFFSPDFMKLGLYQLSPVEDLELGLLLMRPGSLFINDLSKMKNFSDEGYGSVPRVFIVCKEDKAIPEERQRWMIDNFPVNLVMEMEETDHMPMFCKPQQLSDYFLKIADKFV
Kind of experiment: [3H] salicylic acid-binding assay with unlabeled competitors, Arabidopsis homolog produced in E. coli. To be noted: 1 mM unlabeled competitor; protein produced in E. coli; no competitor = 70 dpm. How it is done:
(§1) [^3H] Salicylic acid-binding assay: The protein extracts/fractions were mixed with 0.1 μM [^3H]-SA (23.6 Ci/mmol) (custom synthesized by NEN Life Science Products) in Buffer A to bring the total volume of the reaction mixture to 150 μl. The extracts were then incubated on ice for 60 minutes. Spin columns were prepared by packing Sephadex G-25 fine (Pharmacia) equilibrated with Buffer A into 1 ml disposable syringe barrels. The G-25 was packed to 1 ml and equilibrated by centrifuging at 1000 g for 4 minutes in a H-1000B rotor (Sorvall) at 4° C. The entire binding mixture was loaded onto the column and centrifuged under similar conditions. Bound [^3H]-SA which is present in the flow through, was mixed with 4 ml scintillation cocktail (Ecolite, ICN) and measured in a liquid scintillation counter. Appropriate controls were also assayed.
(§2) To rigorously establish that the 28 KDa protein from plant extract was SABP2, the cloned cDNA was expressed in E. coli as His6-tagged fusion protein and the recombinant protein was purified on a Ni column and tested for SA-binding activity (Table IV).

The target of experiment [2] is T2, AtSB2L5 (Arabidopsis thaliana, UniProt Q9LFT6).
T2 construct: made in house; host or cells: E. coli
T2 sequence (Q9LFT6 1-258): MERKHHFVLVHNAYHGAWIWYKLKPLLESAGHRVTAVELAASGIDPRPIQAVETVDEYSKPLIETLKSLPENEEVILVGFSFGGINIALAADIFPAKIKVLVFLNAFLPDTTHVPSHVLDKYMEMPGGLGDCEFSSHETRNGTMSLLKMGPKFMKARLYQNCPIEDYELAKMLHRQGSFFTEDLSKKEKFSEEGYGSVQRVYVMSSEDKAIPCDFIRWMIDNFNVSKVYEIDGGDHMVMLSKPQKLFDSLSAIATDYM
Described as above. To be noted: 1 mM unlabeled competitor; protein produced in E. coli; no competitor = 12927 dpm. On the procedure:
as §1, §2

Experiment [3] deals with T3, AtSB2L9 (Arabidopsis thaliana, UniProt O23171).
T3 construct: made in house; host or cells: E. coli
T3 sequence (O23171 1-256): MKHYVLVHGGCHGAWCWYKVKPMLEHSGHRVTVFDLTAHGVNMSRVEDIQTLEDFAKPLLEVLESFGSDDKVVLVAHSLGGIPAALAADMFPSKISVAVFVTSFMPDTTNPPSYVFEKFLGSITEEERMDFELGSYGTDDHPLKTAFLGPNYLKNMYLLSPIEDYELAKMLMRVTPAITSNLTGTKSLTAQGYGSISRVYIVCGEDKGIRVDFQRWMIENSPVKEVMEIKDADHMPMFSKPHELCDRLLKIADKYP
The description is as above. To be noted: 1 mM unlabeled competitor; protein produced in E. coli; no competitor = 16486 dpm. How it is done: as §1, §2

Experiment [4] relates to PR genes. To be noted: for induction of PR genes or enhanced disease resistance; cited from earlier work.
Experiment [5] addresses T4, SABP2 (Nicotiana tabacum, UniProt Q6RYA0).
T4 sequence (Q6RYA0 1-260): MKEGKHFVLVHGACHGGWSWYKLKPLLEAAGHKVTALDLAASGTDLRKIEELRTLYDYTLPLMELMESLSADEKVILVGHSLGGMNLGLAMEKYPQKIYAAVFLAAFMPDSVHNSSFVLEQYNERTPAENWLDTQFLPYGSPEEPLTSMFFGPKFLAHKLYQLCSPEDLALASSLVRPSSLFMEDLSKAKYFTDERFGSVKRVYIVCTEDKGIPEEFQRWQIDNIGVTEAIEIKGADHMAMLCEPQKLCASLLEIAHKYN
In words: [3H] salicylic acid-binding assay with unlabeled competitors, recombinant His6-SABP2 produced in E. coli. To be noted: for Bound [^3H] SA SABP2: 1 mM unlabeled competitor, protein produced in E. coli, no competitor = 140206 dpm; for inhibition of ^3H-SA binding by unlabeled competitor (in words): large molar excess of unlabeled competitor, recombinant His6-tagged protein; for binding to SABP2 (in words): recombinant, purified SABP2. Also noted: Full-length tobacco SABP2 was PCR amplified; His6 (N); made in house; host or cells: E. coli BL21 (DE3), vector pET28a; species or system tobacco (Nicotiana tabacum). On the procedure: as §1
Expression of Recombinant SABP2 in E. coli. Full-length tobacco SABP2 was PCR amplified to introduce BamH1 enzyme sites at both ends using the primers F2 ([…]) (SEQ ID NO:51) and F3 ([…]) (SEQ ID NO:52). The amplified product was cloned into the BamH1 site of pET28a (Novagen) and sequenced. Recombinant SABP2 (rSABP2) was synthesized as a soluble protein in E. coli strain BL21 (DE3) and affinity purified by Ni-NTA agarose chromatography (Novagen) as described by the manufacturer. rSABP2 was further purified on a Mono Q column as described earlier.
as §2

Experiment [6] concerns SABP2 expression. Kind of experiment: Induction of SABP2 expression in plants by chemical treatment. Type of experiment: in vivo, tobacco. To be noted: without TMV infection. An excerpt: Expression studies have been initiated and already indicate that the tobacco SABP2 and one of its putative Arabidopsis ortholog, AtSB2L9, are induced in plants resisting infection by viral [tobacco mosaic virus(TMV) or turnip crinkle virus (TCV)] or bacterial (P. s.) pathogens. These studies can be extended to other plant-pathogen interactions, e.g. P. s. pv tabaci, and P.s. pv tomato with or without AvrPto in tomato or Pto-transformed Nicotiana benthamiana, for SABP2 and P. s. and Peronospora parasitica for AtSB2L5, AtSB2L9, and other putative orthologs in Arabidopsis. […] Therefore, induction of SABP2 and its Arabidopsis ortholog(s) by ethylene can be tested in a similar fashion.

The target in experiment [7] is T4, SABP2. In words: SA / analog binding to SABP2 isolated from tobacco plant extracts. Also noted: from tissue; host or cells: tobacco leaves, partially purified extract. The source says: (§3) SA is a key component in the signal transduction pathway(s) leading to activation of certain defense responses in plants after pathogen attack. Previous studies have identified several proteins, including catalase and ascorbate peroxidase, through which the SA signal might act. A novel nucleic acid molecule encoding the SA-binding protein 2, SABP2, is described herein. SABP2 was identified through the use of a high specific activity ligand, [^3H]-SA (15–30 Ci/mmole). […] For example, SABP2 is much less abundant in leaf tissue than the catalase, and has an apparent native mass (Mr) of between about 20 and 40 kDa, as compared with the native molecular mass of catalase, which is approximately 240 kDa.
(§4) As one example, assays for SA analogues may be based on the ability of analogues to bind SABP2 or to compete with SA for binding to SABP2. […] Since SABP2 is part of the signal transduction pathway leading to disease resistance, it may be possible to enhance induction of disease resistance using analogues of SA which are not readily metabolized by the plants. […] This glucoside is not active for induction of disease resistance.
(§5) [^3H] […] Bound [^3H]-SA which is present in the flow through, was mixed with 4 ml scintillation cocktail (Ecolite, ICN) and measured in a liquid scintillation counter. […]

Experiment [8] concerns the target T4, SABP2. Also on record: from tissue; host or cells: tobacco leaves, partially purified extract. To be noted: partially purified plant extracts; more avidly than SA (Du and Klessig, 1997); cited from earlier work.
The test system of experiment [9] is SABP2. Kind of experiment: SA / analog binding to SABP2 isolated from tobacco plant extracts. To be noted: fold higher.
Source text: as §3, §4, §5

Experiment [10] addresses lipase from Mucor meihei (Rhizomucor miehei, UniProt P19515). In words: Lipase activity assay with or without SA, control lipase. To be noted: data not shown. Type of experiment: biochemical. On the procedure: Since SABP2 contains the catalytic triad and the lipase signature sequence, the recombinant protein was tested for lipase activity. […] Addition of SA to the reaction stimulated lipase activity 3–6 fold (FIG. 6B). This stimulation required SA binding to SABP2, since it was abolished in reaction conditions that prevented SA binding. […] The lipase activity assay was performed as described by Yang et al. with modifications to allow SA binding to SABP2. The standard 1 ml assay mixture consisted of 1 mM substrate in 50 mM Bicine pH 8.0, 0.05% Triton-X100. Following a 60 min preincubation on ice in absence or presence of 1 mM SA, the reaction was allowed to proceed at 24° C. for 60 min. A 100 mM stock solution of p-NPM or p-NPP was prepared in acetonitrile. Lipase activity was estimated colorimetrically (Unicom UV1, Spectronic Unicom, UK) by measuring the liberation of para-nitrophenol from p-NPP or p-NPM at 410 nm. Measurements from control reactions without SABP2 were subtracted from each reaction. For non SA-binding conditions, Tris-HCl pH 8.0 (50 mM) was used in placed of Bicine buffer.

In experiment [11] the target is T4, SABP2. Kind of experiment: Lipase activity assay of purified recombinant SABP2 (pNP palmitate / pNP myristate) with or without SA. It is filed as biochemical, tobacco. Also noted: Full-length tobacco SABP2 was PCR amplified; His6 (N); made in house; host or cells: E. coli BL21 (DE3), vector pET28a.

lipase from Mucor meihei, sequence (P19515 95-363): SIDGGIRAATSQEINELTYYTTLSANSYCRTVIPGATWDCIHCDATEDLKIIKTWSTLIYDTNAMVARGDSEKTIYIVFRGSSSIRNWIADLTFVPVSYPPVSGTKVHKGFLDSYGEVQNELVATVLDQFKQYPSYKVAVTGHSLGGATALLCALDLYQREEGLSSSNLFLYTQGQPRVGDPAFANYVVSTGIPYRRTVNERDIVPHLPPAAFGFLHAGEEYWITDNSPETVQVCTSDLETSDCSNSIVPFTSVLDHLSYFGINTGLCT

Consider `O=C(O)c1c(O)cccc1O` [2,6-DHBA, 2,6-dihydroxybenzoic acid], for which the “Bound [^3H] SA AtSB2L1” value in experiment [1] came to 36 dpm. Further, the “Bound [^3H] SA AtSB2L5” value in [2] is listed as 1742 dpm. For the same molecule, the “Bound [^3H] SA AtSB2L9” value in experiment [3] is on record as 1072 dpm. The “Biological Activity of competitor” value in [4] is on record as “active”. For the same molecule, the “Bound [^3H] SA SABP2” value in experiment [5] is given as 924 dpm.

Turning to `O=C(O)c1ccc(O)cc1` [4-HBA, 4-hydroxybenzoic acid], the “Bound [^3H] SA AtSB2L1” value in experiment [1] was found to be 65 dpm. Also, the “Bound [^3H] SA AtSB2L5” value in experiment [2] came out at 4757 dpm. Also, the “Bound [^3H] SA AtSB2L9” value in experiment [3] is reported as 3620 dpm. Besides, the “Biological Activity of competitor” value in experiment [4] was “inactive”. For the same molecule, in experiment [5], the “Bound [^3H] SA SABP2” value was 95634 dpm, the “inhibition of ^3H-SA binding by unlabeled competitor (in words)” value was “not” and the “binding to SABP2 (in words)” value is listed as “only minimal binding”.

For the molecule `O=C(O)c1cc(Cl)ccc1O` [5-CSA, 5-chlorosalicylic acid], in experiment [1], the “Bound [^3H] SA AtSB2L1” value was found to be 38 dpm. Further, in experiment [2], the “Bound [^3H] SA AtSB2L5” value was found to be 64 dpm. In [3], the “Bound [^3H] SA AtSB2L9” value was found to be 42 dpm. The “Biological Activity of competitor” value in [4] was “active”. The “Bound [^3H] SA SABP2” value in experiment [5] is 260 dpm.

Regarding `c1ccc2snnc2c1` [BTH, benzothiadiazole], the “induction of SABP2 expression by treatment alone” value in [6] is on record as “insufficient”. In addition, the “affinity of SABP2 for BTH relative to SA” value in experiment [7] (SABP2 isolated from plant extracts, fold greater) is listed as “approximately 15 fold”. Moreover, the “binding of BTH to SABP2 relative to SA” value in experiment [8] is listed as “about 15 fold”. Moreover, the “binding to SABP2 (in words)” value in experiment [5] is given as “did not bind”.

Take `O=C(O)c1ccccc1O` [SA, salicylic acid]: the “Bound [^3H] SA AtSB2L1” value in experiment [1] came to 42 dpm. In [2], the “Bound [^3H] SA AtSB2L5” value worked out at 121 dpm. In addition, in experiment [3], the “Bound [^3H] SA AtSB2L9” value worked out at 36 dpm. For the same molecule, the “affinity of SABP2 for SA relative to that between SA and tobacco catalase” value in experiment [9] was 100–150 fold. Moreover, the “stimulation of lipase activity by SA” value in [10] is reported as “did not exhibit stimulation”. Besides, the “induction of SABP2 expression by treatment alone” value in [6] was “insufficient”. In addition, the “Biological Activity of competitor” value in experiment [4] is listed as “active”. In addition, the Kd in [7] (SABP2 from tobacco, reversible binding, read-out: apparent Kd of SA binding to SABP2) is about 0.09 µM. Moreover, in experiment [5], the “Bound [^3H] SA SABP2” value came to 160 dpm and the “inhibition of ^3H-SA binding by unlabeled competitor (in words)” value is on record as “inhibited effectively”. The “SA binding to SABP2 in Tris buffer (in words)” value in experiment [5] (50 mM bicine replaced with 50 mM Tris-HCl pH 8.0) was “does not bind”. The “stimulation of SABP2 lipase activity by SA” value in experiment [11] (1 mM SA, 50 mM Bicine pH 8.0, substrates pNP palmitate, pNP myristate) is 3–6 fold. Moreover, in [11] (Tris-HCl pH 8.0 (50 mM) in place of Bicine), the “stimulation of SABP2 lipase activity by SA under conditions that prevent SA binding” value is listed as “abolished”.
